This passage reports IC50 results from BindingDB's records for doi:10.3109/14756360903508430 (University of Karachi, 2010).

Usually IC50 stands for the midpoint of a concentration-inhibition curve. The low end stands for higher potency, the high end for lower potency.

In one assay the target is Cathepsin D (Homo sapiens, UniProt P07339). The assay is described as follows: Fluorescence Resonance Energy Transfer (FRET)-Based Assay. The following applies: pH 5. As to the method:
(§1) The assay was performed with plasmepsin-II/cathepsin D (1.2 nM) and substrate (malaria FRET-1; 1.0 μM) in 0.1 M sodium acetate buffer pH 5, containing 10% glycerol and 0.01% Tween 20. The hydrazide and hydrazine compounds dissolved in DMSO were added in the reaction mixture before the addition of substrate. The assays were performed with 5% final concentration of DMSO. The enzyme inhibition experiments were performed (in triplicates) in 96-well plate format and readings were obtained on a Perkin Elmer LS55 fluorescence spectrometer, Waltham, Massachusetts, with an excitation and emission wavelengths of 336 and 490 nm respectively.

The target in another assay is Plasmepsin II (Plasmodium falciparum (isolate HB3), UniProt P46925). The assay is described as above. The following applies: pH 5. The procedure:
as §1

Chain of Plasmepsin II (P46925 whole entry): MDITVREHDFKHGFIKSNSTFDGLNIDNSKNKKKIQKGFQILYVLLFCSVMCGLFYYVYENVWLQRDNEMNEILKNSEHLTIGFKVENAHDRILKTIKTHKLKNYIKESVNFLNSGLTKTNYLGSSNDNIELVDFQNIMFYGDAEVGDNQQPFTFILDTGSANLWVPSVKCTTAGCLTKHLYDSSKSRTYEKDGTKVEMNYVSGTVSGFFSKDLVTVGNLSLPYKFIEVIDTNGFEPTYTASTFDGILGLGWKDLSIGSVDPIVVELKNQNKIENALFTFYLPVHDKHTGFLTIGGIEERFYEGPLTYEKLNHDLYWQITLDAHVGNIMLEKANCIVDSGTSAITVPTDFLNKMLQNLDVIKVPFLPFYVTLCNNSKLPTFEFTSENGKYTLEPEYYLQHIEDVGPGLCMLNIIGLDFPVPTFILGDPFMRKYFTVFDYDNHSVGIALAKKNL
Chain of Cathepsin D (P07339 65-162 limits assumed): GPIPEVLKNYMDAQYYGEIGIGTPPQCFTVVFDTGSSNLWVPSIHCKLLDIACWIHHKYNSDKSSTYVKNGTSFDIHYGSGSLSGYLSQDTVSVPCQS
Chain of Cathepsin D (P07339 169-412 limits assumed): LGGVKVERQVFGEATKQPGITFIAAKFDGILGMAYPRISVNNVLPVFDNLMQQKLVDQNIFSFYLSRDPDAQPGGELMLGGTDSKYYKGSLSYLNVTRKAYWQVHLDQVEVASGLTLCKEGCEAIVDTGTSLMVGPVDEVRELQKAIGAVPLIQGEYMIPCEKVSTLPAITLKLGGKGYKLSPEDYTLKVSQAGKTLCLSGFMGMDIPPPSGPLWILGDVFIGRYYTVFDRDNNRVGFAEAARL

In the case of `CCCC(=O)NN` [Butanohydrazide], the values for the half-inhibitory concentration (IC50) against Cathepsin D and on Plasmepsin II were 1400 nM and 1250 nM, respectively.

Regarding `c1cc(NNc2ccncc2)ccn1` [1,2-Dipyridinylhydrazine], the IC50 against Cathepsin D was determined as 2500 nM; against Plasmepsin II it was 1450 nM.

Consider `NNC(=O)c1ccccc1[N+](=O)[O-]` [2-Nitrobenzohydrazide], for which the IC50 against Cathepsin D came to 1300 nM; against Plasmepsin II, 1000 nM.

For `c1ccc(NNc2ccccc2)cc1` [1,2-Diphenylhydrazine], the figures for the IC50 against Cathepsin D and against Plasmepsin II were 2400 nM and 1050 nM, respectively.

In the case of `COc1ccccc1C(=O)NN`, the values for the 50% inhibitory concentration (IC50) at Cathepsin D and against Plasmepsin II were 1500 nM and 1650 nM, respectively.
